US20100261666A1, “COMPOSITIONS AND METHODS FOR THE TREATMENT OF MYOCARDIAL DYSFUNCTION ASSOCIATED WITH SIRS OR SEPSIS” (THE BOARD OF TRUSTEES OF THE UNIVERSITY OF ILLINOIS, priority 2009, published 2010)
Read-outs that look alike come from different tables or passages of the source.

Tests used:
[1] = system: TNF-α; assay: Real time PCR, left ventricular TNF-α mRNA expression; assay type: in vivo, rat; conditions: LPS infusion
Procedure: Total RNA was isolated from left ventricular tissue using the SV Total Isolation System (Promega Corp., Madison, Wis.). Isolation was performed according to manufacturer instructions and followed by DNAse treatment to eliminate residual genomic DNA contamination. RNA integrity was determined by loading 1.0 μg of total RNA isolate from each sample onto a 1.0% agarose gel and staining with ethidium bromide to visualize the 18 and 28s RNA bands. The amount of RNA recovered was determined using the Ribogreen RNA Quantification Kit (Molecular Probes, Eugene, Oreg.). […]
Specific primer sequences, GenBank accession numbers, Sequence Identifiers, and product sizes are disclosed in Table 5. […] For real-time PCRs, SYBR PCR Master Mix (Bio-Rad Laboratories, Hercules, Calif.) was used, and thermocycling and fluorescence detection was performed using a Stratagene Mx3000p real-time PCR machine.
After confirmation of primer efficiency and specificity, the concentrations of purified products generated by standard PCR were determined using Molecular Probe's Picogreen DNA quantification kit, and PCR products were serially diluted to obtain standards containing 10^1, 10^2, 10^3, 10^4, 10^5, and 10^6 copies of synthetic template. […]

[2] = system: rat isolated hearts; assay: Langendorff rat isolated heart procedure: left ventricular function and coronary flow; assay type: in vivo; conditions: for Coronary flow Baseline / Coronary flow 30 min / Coronary flow 60 min / Coronary flow 90 min / Coronary flow 120 min / Coronary flow 150 min: mean ± SEM
Procedure: Male Sprague Dawley, virus-free rats (Harlan) were used in each of the examples presented herein. After arrival and a brief acclimation (72 hours minimum), animals were randomized into control or experimental groups. The control and experimental protocols (Table 1) and experimental group treatments (Table 2) are described below.
Rat isolated heart experiments were performed via Langendorff method. […] CON hearts received vehicle (IP sterile water). […] Heparin was allowed to circulate for 60 seconds at which time a thoracotomy was performed to expose the heart. The heart was quickly removed, placed in ice cold Krebs-Ringers bicarbonate buffer (KRB, described below) and weighed. The ascending aorta was rapidly cannulated and the heart was attached, via the cannula, to the perfusion apparatus. The hearts were perfused with a modified KRB containing (102 mM NaCl, 4.75 mM KCl, 1.20 mM KH2PO4, 1.18 mM MgSO4, 22.75 mM NaHCO3, 11.50 mM Glucose, 4.96 mM Na-Pyruvate, 5.40 mM Na-Fumarate and 1 mM CaCl2), at a temperature of 37.0° C., and pH 7.4 as maintained by vigorous bubbling with 95%/5% O2/CO2.
At all times, hearts were perfused with KRB at a pressure of 72-78 mmHg set by the height of the water-jacketed reservoir. The left atrium of the heart was then removed, just above the left atrio-ventricular valve. A latex balloon was used to measure left ventricular pressure as an index of cardiac performance. The balloon was constructed by filling the reservoir tip of a latex condom with degassed water. PE-50 tubing, pre-filled with degassed water and attached to a stopcock/Hamilton screw-top syringe assembly, was flanged and placed into the tip of the condom. Surgical silk (5-0) was used to gather the condom tip around the flanged end of the tubing and form a seal, at which time the excess latex was removed.
The balloon/stopcock assembly was attached to a pressure transducer (Spectramed-Statham) and inserted into the left ventricle to record cardiac performance data via Windaq (DATAQ, CA). Two platinum electrodes, connected to a electrical stimulator (Grass Model 92C), were placed at the lateral edges of the right atria in order to pace the heart at 300 BPM using a voltage 10% greater than that required to capture rhythm. The volume in the latex balloon was increased to produce a left ventricular diastolic pressure (LVdiaP) of 10.0 mmHg.
The heart was then perfused normally for 30 minutes, a period designated as the equilibration phase. During this phase of perfusion hearts had to maintain a LVdiaP of 10.0±2.0 mmHg to be included in the study. At the end of thirty minutes, baseline measurements of coronary flow and left ventricular pressure were made. This time point was designated as 0 minutes. At this time, hearts receiving LPS (10 μg/mL/min) were infused via injection port/stop cock assembly, into the KRB perfusion stream, just above the aortic cannula for a total infusion time of 60 minutes. Hearts not receiving LPS were infused with vehicle (sterile water, 1.25% coronary flow (mL)·min). At 60 minutes, infusion was halted and normal KRB perfusion continued for 90 minutes (total experimental time post-equilibration=150 minutes).
Measurements of coronary flow and left ventricular pressure were taken every 30 minutes starting at 0 minutes. At the termination of the experiment, the left ventricle was rapidly excised from the whole heart, flash frozen in liquid nitrogen and stored at −80.0° C. for further analysis.
Statistical analysis was performed on data generated from these experimental protocols using a one-way analysis of variance (one-way ANOVA) with pair wise comparisons (Fisher Least Significant Difference test (LSD)). Data is presented herein as mean±standard error of the mean (SEM).
The Fisher LSD was used to determine whether 30 and 150 min values differed from baseline values. In addition, changes from baseline values (e.g., 30 or 150 minute value−respective baseline value) were compared among groups.

[3] = target: ADA (Homo sapiens, UniProt P00813); conditions: cited from earlier work
[4] = system: ADA1; assay: Real time PCR, left ventricular ADA1 mRNA expression; assay type: in vivo, rat
Procedure: Total RNA was isolated from left ventricular tissue using the SV Total Isolation System (Promega Corp., Madison, Wis.). Isolation was performed according to manufacturer instructions and followed by DNAse treatment to eliminate residual genomic DNA contamination. RNA integrity was determined by loading 1.0 μg of total RNA isolate from each sample onto a 1.0% agarose gel and staining with ethidium bromide to visualize the 18 and 28s RNA bands. The amount of RNA recovered was determined using the Ribogreen RNA Quantification Kit (Molecular Probes, Eugene, Oreg.). 1 μg of total RNA was reverse transcribed in a […] using random hexamer primers with enzyme and buffers supplied in the cDNA First Strand Synthesis kit (MRI Fermentas, Hanover, Md.). First strand cDNA was treated with ribonuclease H to remove residual RNA.
Real time PCR (qPCR) was performed to measure RNA transcripts for left ventricular TNF-α and ADA1. Three housekeeping genes were selected as follows to produce an intergroup correction factor for target transcripts: Cyclophilin A, hypoxanthine-guanine physphoribosyltransferase (HPRT), and β-actin. Primers were selected using Primer 3 software (Rosen and Skaletsky, Whitehead Institute for Biomedical Research) with the rat genomic sequences for TNF gene, ADA gene, HPRT gene, β-actin gene, and Cyclophilin gene as templates. BLAST (National Center for Biotechnology Information) searches were used to verify that the selected primers were specific for the designated target.
Specific primer sequences, GenBank accession numbers, Sequence Identifiers, and product sizes are disclosed in Table 5. Primers were used in a standard PCR with the 2× Master Mix PCR reagent (MRI Fermentas) and cDNA from the tissue of interest as a template. The thermocycling profile consisted of one cycle of 95° C. for 10 minutes, followed by 41 cycles of 95° C. for 1 minute, 61° C. for 1 minute, and 72° C. for 1 minute and a final cycle of 72° C. for 10 minutes. Products were run on a 1.0% agarose gel and stained with ethidium bromide to confirm that only one band was amplified and that no primer dimers were present. PCR products were then column-purified (QIAGEN, Valencia, Calif.) and sequenced to confirm target specificity. For real-time PCRs, SYBR PCR Master Mix (Bio-Rad Laboratories, Hercules, Calif.) was used, and thermocycling and fluorescence detection was performed using a Stratagene Mx3000p real-time PCR machine.
Standards were then amplified by real-time PCR, and standard curves were generated using Stratagene Mx3000P software. […]
A housekeeping gene was selected for normalization of the real-time PCR data for the TNF-α and ADA1 transcripts. Three potential gene (mRNA) products were analyzed for this purpose: CYC, β-actin and HPRT.

[5] = target: adenosine deaminase (Rattus norvegicus, UniProt Q920P6); conditions: LV tissue homogenates at 150 minute time point
Procedure: Assays were performed according to the manufacturer's instructions.

[6] = LPS infusion, 30 minutes, change from baseline, mean±SEM

adenosine deaminase, sequence (Q920P6 whole entry): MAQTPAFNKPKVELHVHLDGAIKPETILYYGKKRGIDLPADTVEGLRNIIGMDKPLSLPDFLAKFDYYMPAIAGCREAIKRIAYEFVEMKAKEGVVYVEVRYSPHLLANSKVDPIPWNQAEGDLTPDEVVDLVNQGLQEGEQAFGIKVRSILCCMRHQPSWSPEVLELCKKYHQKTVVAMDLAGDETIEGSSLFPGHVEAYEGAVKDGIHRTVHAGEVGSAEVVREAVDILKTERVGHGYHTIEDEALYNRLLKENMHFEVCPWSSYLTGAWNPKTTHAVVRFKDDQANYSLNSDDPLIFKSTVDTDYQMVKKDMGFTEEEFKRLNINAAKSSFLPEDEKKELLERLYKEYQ
ADA, sequence (P00813 whole entry, species assumed): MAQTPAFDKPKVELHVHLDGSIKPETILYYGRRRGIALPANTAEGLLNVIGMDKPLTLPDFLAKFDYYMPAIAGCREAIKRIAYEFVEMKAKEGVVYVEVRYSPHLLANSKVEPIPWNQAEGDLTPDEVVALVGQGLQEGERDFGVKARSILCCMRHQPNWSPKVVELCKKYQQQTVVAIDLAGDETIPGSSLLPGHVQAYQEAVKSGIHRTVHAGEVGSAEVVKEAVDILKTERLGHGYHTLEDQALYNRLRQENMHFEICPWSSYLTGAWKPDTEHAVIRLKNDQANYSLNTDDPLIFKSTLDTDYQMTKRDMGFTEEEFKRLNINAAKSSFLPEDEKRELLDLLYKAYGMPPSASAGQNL

SMILES: OC[C@H]1O[C@@H](n2cnc3c2N=CNCC3O)CC1O (stereo in doubt) [dCF, 2′-deoxycoformycin]
- left ventricular TNF-α mRNA expression compared to LPS hearts [1]: did not significantly alter
- Coronary flow Baseline ([2]; LPS infusion 10 μg/mL/min (-LPS group)): 27.4 ± 1.7 mL/min
- Coronary flow 30 min ([2]; LPS infusion (-LPS group)): 28.7 ± 1.2 mL/min
- Coronary flow 60 min ([2]; LPS infusion (-LPS group)): 27.8 ± 1.2 mL/min
- Coronary flow 90 min ([2]; LPS infusion (-LPS group)): 25.7 ± 1.0 mL/min
- Coronary flow 120 min ([2]; LPS infusion (-LPS group)): 22.4 ± 1.1 mL/min
- Coronary flow 150 min ([2]; LPS infusion (-LPS group)): 19.6 ± 0.8 mL/min
- +dP/dt compared to respective baseline ([2]; LPS infusion, 30 minutes): significantly greater
- LV developed pressure compared to respective baseline ([2]; LPS infusion, 30 minutes): significantly increased
- LV diastolic pressure compared to respective baseline ([2]; LPS infusion, 30 minutes): significantly lower
- LV systolic pressure compared to respective baseline ([2]; LPS infusion, 30 minutes): significantly greater
- increase in LV developed pressure compared to LPS group ([2]; LPS infusion, 30 minutes): similar
- increase in LV systolic pressure compared to LPS group ([2]; LPS infusion, 30 minutes): similar
- increase in −dP/dt compared to LPS group ([2]; LPS infusion, 30 minutes): similar
- −dP/dt compared to respective baseline ([2]; LPS infusion, 30 minutes): significantly greater
- increase in LV developed pressure [2, 6]: 20.1±3.2 mmHg
- increase in LV systolic pressure [2, 6]: 17.1±3.0 mmHg
- +dP/dt compared to CON ([2]; LPS infusion, 150 minutes): No differences
- +dP/dt compared to LPS hearts ([2]; LPS infusion, 150 minutes): improved
- LV developed pressure compared to CON ([2]; LPS infusion, 150 minutes): No differences
- LV developed pressure compared to LPS hearts ([2]; LPS infusion, 150 minutes): improved
- LV developed pressure compared to respective baseline ([2]; LPS infusion, 150 minutes): not significantly different
- LV diastolic pressure (LPS-induced increase) compared to LPS hearts ([2]; LPS infusion, 150 minutes): improved
- LV systolic pressure compared to LPS group / among groups ([2]; LPS infusion, 150 minutes): no significant differences
- −dP/dt compared to LPS alone / among groups ([2]; LPS infusion, 150 minutes): No significant differences
- −dP/dt compared to respective baseline ([2]; LPS infusion, 150 minutes): significantly lower
- Coronary flow 30 min ([2]; vehicle infusion (-CON group)): 27.7 ± 1.9 mL/min
- Coronary flow 60 min ([2]; vehicle infusion (-CON group)): 26.3 ± 2.1 mL/min
- Coronary flow 90 min ([2]; vehicle infusion (-CON group)): 24.5 ± 1.8 mL/min
- Coronary flow 120 min ([2]; vehicle infusion (-CON group)): 21.5 ± 1.9 mL/min
- Coronary flow 150 min ([2]; vehicle infusion (-CON group)): 19.8 ± 2.0 mL/min
- Coronary flow Baseline ([2]; vehicle infusion (-CON group)): 28.1 ± 1.9 mL/min
- +dP/dt compared to respective baseline ([2]; vehicle infusion, 30 minutes): no differences
- LV diastolic pressure compared to respective baseline ([2]; vehicle infusion, 30 minutes): significantly lower
- −dP/dt compared to respective baseline ([2]; vehicle infusion, 30 minutes): no differences
- LV developed pressure compared to respective baseline ([2]; vehicle infusion, 150 minutes): not significantly different
- −dP/dt compared to respective baseline ([2]; vehicle infusion, 150 minutes): significantly lower
- binding between dCF and ADA [3]: effectively irreversible
- left ventricular ADA1 mRNA expression (copy numbers) compared to CON and LPS hearts ([4]; LPS infusion): significantly lower
- left ventricular ADA1 mRNA expression (copy numbers) compared to CON and LPS hearts ([4]; vehicle infusion): significantly lower
- LV ADA activity compared to CON and LPS hearts ([5]; LPS infusion): significant decrease
- LV ADA activity compared to CON and LPS hearts ([5]; vehicle infusion): significant decrease
